Tests used:
PKC epsilon = target: T1, PKC epsilon (Homo sapiens, UniProt Q02156); test: Biochemical assay for PKC epsilon (fluorescence polarization, Protein Kinase C Assay Kit, Red); conditions: Table 2, compounds of Formula XIII; read-out: IC50 μM PKCε
T1 construct: purchased Invitrogen P2282
T1 sequence (Q02156 1-737): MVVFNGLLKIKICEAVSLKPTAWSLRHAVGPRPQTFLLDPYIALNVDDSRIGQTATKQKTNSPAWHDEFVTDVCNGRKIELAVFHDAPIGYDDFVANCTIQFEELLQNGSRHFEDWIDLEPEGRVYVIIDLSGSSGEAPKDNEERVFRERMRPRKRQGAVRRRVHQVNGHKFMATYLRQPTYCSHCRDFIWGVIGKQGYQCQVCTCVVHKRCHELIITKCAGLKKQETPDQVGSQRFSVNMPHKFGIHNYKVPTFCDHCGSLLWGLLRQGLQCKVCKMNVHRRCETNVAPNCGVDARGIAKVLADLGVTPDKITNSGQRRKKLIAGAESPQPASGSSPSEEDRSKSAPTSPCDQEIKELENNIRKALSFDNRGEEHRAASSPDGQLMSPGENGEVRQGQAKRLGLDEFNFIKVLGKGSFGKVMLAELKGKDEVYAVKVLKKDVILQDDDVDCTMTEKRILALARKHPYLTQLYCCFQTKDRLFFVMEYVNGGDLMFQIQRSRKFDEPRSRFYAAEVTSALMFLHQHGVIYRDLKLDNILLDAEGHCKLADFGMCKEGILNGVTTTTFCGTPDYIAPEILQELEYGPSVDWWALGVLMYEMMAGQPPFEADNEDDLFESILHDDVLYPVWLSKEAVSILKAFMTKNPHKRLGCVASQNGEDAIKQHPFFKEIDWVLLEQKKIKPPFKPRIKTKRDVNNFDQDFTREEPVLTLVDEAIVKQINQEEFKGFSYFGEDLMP
Summary of the method: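 PKC epsilon at 10 ng/ml final was preincubated 30 min at room temperature with compound in HEPES pH 7.4 with DTT and Triton X-100. ATP/protein substrate was then added in buffer with MgCl2 and CaCl2 for 80 min. The reaction was stopped with EDTA, phosphorylation was detected by fluorescence polarization with rhodamine tracer and anti-phosphoserine antibody, and IC50 values came from curve fits.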

human ROCKα/ROCKII mix = target: T2, human ROCKα/ROCKII mix (Homo sapiens, UniProt O75116); test: Biochemical assay for ROCK (fluorescence polarization, ROCK IMAP Kit); conditions: Table 2, compounds of Formula XIII
T2 construct: purchased Upstate Biotechnology 14-451
T2 sequence (O75116 11-552 limits assumed): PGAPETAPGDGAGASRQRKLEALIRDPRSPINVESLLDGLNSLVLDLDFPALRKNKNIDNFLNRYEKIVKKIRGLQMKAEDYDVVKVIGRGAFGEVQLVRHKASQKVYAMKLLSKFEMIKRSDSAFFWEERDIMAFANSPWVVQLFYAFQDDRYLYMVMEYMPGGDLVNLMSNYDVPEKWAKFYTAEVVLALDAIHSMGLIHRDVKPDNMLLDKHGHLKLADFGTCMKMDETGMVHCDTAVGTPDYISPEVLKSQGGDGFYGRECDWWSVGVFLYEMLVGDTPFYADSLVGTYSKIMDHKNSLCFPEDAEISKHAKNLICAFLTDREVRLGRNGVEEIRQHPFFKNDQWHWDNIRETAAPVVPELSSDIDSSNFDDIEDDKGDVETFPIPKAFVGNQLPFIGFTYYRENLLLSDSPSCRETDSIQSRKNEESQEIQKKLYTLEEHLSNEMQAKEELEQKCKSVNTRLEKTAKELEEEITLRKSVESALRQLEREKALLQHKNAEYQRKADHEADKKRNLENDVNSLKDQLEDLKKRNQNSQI

Structure (SMILES) | IC50 (PKC epsilon) [µM] | IC50 (human ROCKα/ROCKII mix) [µM]
NC(CNC(=O)[C@H]1CCC(=O)N1)c1ccc(C(=O)Nc2ccncc2)cc1 (stereo partly drawn) [Compound 68, 5-Oxo-pyrrolidine-2-(R)-carboxylic acid {2-amino-2-[4-(pyridin-4-ylcarbamoyl)-phenyl]-ethyl}-amide] | 5 to 50 | 0.05 to 0.5
COc1ccccc1C(=O)NCC(N)c1ccc(C(=O)Nc2ccncc2)cc1 (centres unmarked) [Compound 72, 4-[1-amino-2-(2-methoxy-benzoylamino)-ethyl]-N-pyridin-4-yl-benzamide] | 0.5 to 5 | 0.5 to 5
NC(CNC(=O)c1ccccc1Oc1ccccc1)c1ccc(C(=O)Nc2ccncc2)cc1 (centres unmarked) [Compound 76, 4-[1-amino-2-(2-phenoxy-benzoylamino)-ethyl]-N-pyridin-4-yl-benzamide] | 0.5 to 5 | 0.5 to 5
NC(CNC(=O)c1cccc(Oc2ccccc2)c1)c1ccc(C(=O)Nc2ccncc2)cc1 (centres unmarked) [Compound 77, 4-[1-amino-2-(3-phenoxy-benzoylamino)-ethyl]-N-pyridin-4-yl-benzamide] | 5 to 50 | 0.5 to 5
COc1cc(OC)cc(C(=O)NCC(N)c2ccc(C(=O)Nc3ccncc3)cc2)c1 (centres unmarked) [Compound 79, 4-[1-amino-2-(3,5-dimethoxy-benzoylamino)-ethyl]-N-pyridin-4-yl-benzamide] | 0.5 to 5 | 0.5 to 5
NC(CNC(=O)c1ccc2c(c1)OCO2)c1ccc(C(=O)Nc2ccncc2)cc1 (centres unmarked) [Compound 80, Benzo[1,3]dioxole-5-carboxylic acid {2-amino-2-[4-(pyridin-4-ylcarbamoyl)-phenyl]-ethyl}amide] | 5 to 50 | 0.05 to 0.5
CCN(CC)c1ccc(C(=O)NCC(N)c2ccc(C(=O)Nc3ccncc3)cc2)cc1 (centres unmarked) [Compound 81, 4-[1-amino-2-(4-diethylamino-benzoylamino)-ethyl]-N-pyridin-4-yl-benzamide] | 5 to 50 | 0.5 to 5
Cc1cccc(C(=O)NCC(N)c2ccc(C(=O)Nc3ccncc3)cc2)c1 (centres unmarked) [Compound 85, 4-[1-amino-2-(3-methyl-benzoylamino)-ethyl]-N-pyridin-4-yl-benzamide] | 0.5 to 5 | 0.5 to 5
Cc1ccc(C(=O)NCC(N)c2ccc(C(=O)Nc3ccncc3)cc2)cc1 (centres unmarked) [Compound 86, 4-[1-amino-2-(4-methyl-benzoylamino)-ethyl]-N-pyridin-4-yl-benzamide] | 5 to 50 | 0.5 to 5
NC(CNC(=O)c1ccccc1-c1ccccc1)c1ccc(C(=O)Nc2ccncc2)cc1 (centres unmarked) [Compound 87, Biphenyl-2-carboxylic acid {2-amino-2-[4-(pyridin-4-ylcarbamoyl)-phenyl]-ethyl}-amide] | 0.5 to 5 | 0.5 to 5
NC(CNC(=O)c1cccc(Cl)c1)c1ccc(C(=O)Nc2ccncc2)cc1 (centres unmarked) [Compound 89, 4-[1-amino-2-(3-chloro-benzoylamino)-ethyl]-N-pyridin-4-yl-benzamide] | 0.5 to 5 | 0.5 to 5
NC(CNC(=O)c1ccc(F)cc1)c1ccc(C(=O)Nc2ccncc2)cc1 (centres unmarked) [Compound 93, 4-[1-amino-2-(4-fluoro-benzoylamino)-ethyl]-N-pyridin-4-yl-benzamide] | 0.5 to 5 | 0.5 to 5
N#Cc1ccc(C(=O)NCC(N)c2ccc(C(=O)Nc3ccncc3)cc2)cc1 (centres unmarked) [Compound 95, 4-[1-amino-2-(4-cyano-benzoylamino)-ethyl]-N-pyridin-4-yl-benzamide] | 5 to 50 | 0.5 to 5
CS(=O)(=O)c1cccc(C(=O)NCC(N)c2ccc(C(=O)Nc3ccncc3)cc2)c1 (centres unmarked) [Compound 96, 4-[1-amino-2-(3-methanesulfonyl-benzoylamino)-ethyl]-N-pyridin-4-yl-benzamide] | 0.5 to 5 | 0.5 to 5
CCNS(=O)(=O)c1cccc(C(=O)NCC(N)c2ccc(C(=O)Nc3ccncc3)cc2)c1 (centres unmarked) [Compound 97, 4-[1-amino-2-(3-ethylsulfamoyl-benzoylamino)-ethyl]-N-pyridin-4-yl-benzamide] | 0.5 to 5 | 0.5 to 5
CNS(=O)(=O)c1ccc(C(=O)NCC(N)c2ccc(C(=O)Nc3ccncc3)cc2)cc1 (centres unmarked) [Compound 98, 4-[1-amino-2-(4-methylsulfamoyl-benzoylamino)-ethyl]-N-pyridin-4-yl-benzamide] | 5 to 50 | 0.5 to 5
NC(CNC(=O)c1cccc(S(=O)(=O)Nc2ccccc2)c1)c1ccc(C(=O)Nc2ccncc2)cc1 (centres unmarked) [Compound 99, 4-[1-amino-2-(3-phenylsulfamoyl-benzoylamino)-ethyl]-N-pyridin-4-yl-benzamide] | 0.5 to 5 | 0.5 to 5

Results, then the compound that gave them:

IC50 (PKC epsilon) [µM] | IC50 (human ROCKα/ROCKII mix) [µM] | Structure (SMILES)
5 to 50 | 0.5 to 5 | NC(CNC(=O)C1CCCO1)c1ccc(C(=O)Nc2ccncc2)cc1 (centres unmarked) [Compound 66, Tetrahydro-furan-2-carboxylic acid {2-amino-2-[4-(pyridin-4-ylcarbamoyl)-phenyl]-ethyl}-amide]
5 to 50 | 0.5 to 5 | NC(CNC(=O)[C@@H]1CCC(=O)N1)c1ccc(C(=O)Nc2ccncc2)cc1 (stereo partly drawn) [Compound 67, 5-Oxo-pyrrolidine-2-(S)-carboxylic acid {2-amino-2-[4-(pyridin-4-ylcarbamoyl)-phenyl]-ethyl}-amide]
5 to 50 | 0.05 to 0.5 | NC(CNC(=O)c1ccc2ccccc2c1)c1ccc(C(=O)Nc2ccncc2)cc1 (centres unmarked) [Compound 70]
0.5 to 5 | 0.5 to 5 | NC(CNC(=O)c1cccc2ccccc12)c1ccc(C(=O)Nc2ccncc2)cc1 (centres unmarked) [Compound 71]
0.5 to 5 | 0.5 to 5 | COc1cccc(C(=O)NCC(N)c2ccc(C(=O)Nc3ccncc3)cc2)c1 (centres unmarked) [Compound 73, 4-[1-amino-2-(3-methoxy-benzoylamino)-ethyl]-N-pyridin-4-yl-benzamide]
5 to 50 | 0.5 to 5 | COc1ccc(C(=O)NCC(N)c2ccc(C(=O)Nc3ccncc3)cc2)cc1 (centres unmarked) [Compound 74, 4-[1-amino-2-(4-methoxy-benzoylamino)-ethyl]-N-pyridin-4-yl-benzamide]
5 to 50 | 0.5 to 5 | CCCOc1ccc(C(=O)NCC(N)c2ccc(C(=O)Nc3ccncc3)cc2)cc1 (centres unmarked) [Compound 75, 4-[1-amino-2-(4-propoxy-benzoylamino)-ethyl]-N-pyridin-4-yl-benzamide]
5 to 50 | 0.5 to 5 | NC(CNC(=O)c1ccc(Oc2ccccc2)cc1)c1ccc(C(=O)Nc2ccncc2)cc1 (centres unmarked) [Compound 78, 4-[1-amino-2-(4-phenoxy-benzoylamino)-ethyl]-N-pyridin-4-yl-benzamide]
0.5 to 5 | 0.5 to 5 | NC(CNC(=O)c1ccccc1Nc1ccccc1)c1ccc(C(=O)Nc2ccncc2)cc1 (centres unmarked) [Compound 82, 4-[1-amino-2-(2-phenylamino-benzoylamino)-ethyl]-N-pyridin-4-yl-benzamide]
5 to 50 | 0.5 to 5 | CC(=O)Nc1ccc(C(=O)NCC(N)c2ccc(C(=O)Nc3ccncc3)cc2)cc1 (centres unmarked) [Compound 83, 4-[1-amino-2-(4-acetylamino-benzoylamino)-ethyl]-N-pyridin-4-yl-benzamide]
5 to 50 | 0.5 to 5 | Cc1ccccc1C(=O)NCC(N)c1ccc(C(=O)Nc2ccncc2)cc1 (centres unmarked) [Compound 84, 4-[1-amino-2-(2-methyl-benzoylamino)-ethyl]-N-pyridin-4-yl-benzamide]
5 to 50 | 0.5 to 5 | NC(CNC(=O)c1ccc(-c2ccccc2)cc1)c1ccc(C(=O)Nc2ccncc2)cc1 (centres unmarked) [Compound 88, Biphenyl-4-carboxylic acid {2-amino-2-[4-(pyridin-4-ylcarbamoyl)-phenyl]-ethyl}-amide]
5 to 50 | 0.5 to 5 | NC(CNC(=O)c1ccc(Cl)cc1)c1ccc(C(=O)Nc2ccncc2)cc1 (centres unmarked) [Compound 90, 4-[1-amino-2-(4-chloro-benzoylamino)-ethyl]-N-pyridin-4-yl-benzamide]
0.5 to 5 | 0.5 to 5 | NC(CNC(=O)c1cccc(Br)c1)c1ccc(C(=O)Nc2ccncc2)cc1 (centres unmarked) [Compound 91, 4-[1-amino-2-(3-bromo-benzoylamino)-ethyl]-N-pyridin-4-yl-benzamide]
0.5 to 5 | 0.5 to 5 | NC(CNC(=O)c1cccc(F)c1)c1ccc(C(=O)Nc2ccncc2)cc1 (centres unmarked) [Compound 92, 4-[1-amino-2-(3-fluoro-benzoylamino)-ethyl]-N-pyridin-4-yl-benzamide]
0.5 to 5 | 0.5 to 5 | N#Cc1cccc(C(=O)NCC(N)c2ccc(C(=O)Nc3ccncc3)cc2)c1 (centres unmarked) [Compound 94, 4-[1-amino-2-(3-cyano-benzoylamino)-ethyl]-N-pyridin-4-yl-benzamide]
5 to 50 | 0.5 to 5 | NC(CNC(=O)c1ccc(C(=O)c2ccccc2)cc1)c1ccc(C(=O)Nc2ccncc2)cc1 (centres unmarked) [Compound 100, 4-[1-amino-2-(4-benzoyl-benzoylamino)-ethyl]-N-pyridin-4-yl-benzamide]

Source: patent US20100168102A9, “Amide Derivatives as Kinase Inhibitors” (Devgen NV, priority 2005, published 2010)
